The text below walks through data of patent EP4389751A1, “HETEROCYCLIC COMPOUNDS AND USES THEREOF” (Kumquat Biosciences Inc., priority 2021, dated 2024).

Where two headings read alike, the source gives them in different places.

The target of one assay is T1, K-Ras G12S (Homo sapiens, UniProt P01116, G12S).
T1 construct: made in house; host or cells: E. coli (e.g., BL21 (DE3))
Nature of the assay: HTRF assay of the K-Ras / SOS1 interaction. The assay is classed as biochemical. The settings on record: IC50 (against K-Ras G12D) to IC50 (against K-Ras G12S). An outline of the steps:
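GST-K-Ras G12S with anti-GST-Eu donor and His-hSOS1 with anti-6His-XL665 acceptor in ~5 mM HEPES pH 7.4, ~150 mM NaCl, 1 mM DTT, 0.05% BSA, 0.0025% Igepal. Read after ~10 min or longer; IC50 from 665/620 nm ratio, duplicates at 10 µM down to 0.01 µM.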
In general terms: In TR-FRET formats the signal depends on donor and acceptor labels being close together.

The next assay deals with GP2D cells. The assay is described as follows: Cell proliferation assay (CellTiter-Glo), K-Ras G12D cells. The assay is classed as cell-based. To be noted: read-out: Inhibition of GP2D Cells (IC50). The method, then:
ASPC-1 (ATCC CRL-1682), Panc-10.05 (ATCC CRL-2547), A427, and GP2D (Sigma 95090714) cell lines comprise a G12D mutation and can be used to assess Ras cellular signaling in vitro, e.g., in response to the compounds herein. […] ASPC-1 culture medium is prepared with RPMI-1640 and 10% heat-inactivated FBS. Panc-10.05 culture medium is prepared with RPMI-1640, 10 Units/ml human recombinant insulin, and 10% FBS. A427 cell culture is prepared with RPMI-1640 and 10% heat-inactivated FBS. GP2D culture medium is prepared with DMEM with 2mM glutamine and 10% heat-inactivated FBS. A Cell Titer-Glo (CTG) luminescent based assay (Promega) is used to assess growth of the cells, as a measurement of the ability of the compounds herein to inhibit Ras signaling in the cells. The cells (e.g., 800 per well) are seeded in their respective culture medium in standard tissue culture-treated 384-well format plates (Falcon #08-772-116) or ultra-low attachment surface 384-well format plates (S-Bio # MS-9384UZ ). The day after plating, cells are treated with a dilution series (e.g., a 9 point 3-fold dilution series) of the compounds herein (e.g., approximately 40 µl final volume per well). Cell viability can be monitored (e.g., approximately 5 days later) according to the manufacturer's recommended instructions, where the CellTiter-Glo reagent is added (e.g., approximately 10 µl), vigorously mixed, covered, and placed on a plate shaker (e.g., approximately for 20 min) to ensure sufficient cell lysis prior to assessment of luminescent signal. The IC50 values are determined using the four parameter fit. The resulting IC50 value is a measurement of the ability of the compounds herein to reduce cell growth of Ras-driven cells (e.g., tumor cell lines) in vitro and/or in vivo.
A general note: ATP-based viability assays read luminescence as a measure of living cells.

Broadly, the IC50 is the concentration needed to halve the response being measured.

With “2-amino-4-(6-chloro-8-fluoro-2-(((2R,7aS)-2-fluorotetrahydro-1H-pyrrolizin-7 a(5H)-yl)methoxy)-4-(8-(4-methyl-1H-1,2,3-triazole-1-carbonyl)-3,8-diazabicyclo[3.2.1]octan-3-yl)quinazolin-7-yl)-7-fluorobenzo[b]thiophene-3-carbonitrile [Compound A189]”, at K-Ras G12S, the “Ratio of IC50 KRAS G12D vs. IC50 KRAS G12S” value (from here on “Ratio”) is given as “A (A: indicates that the ratio of IC50 against KrasG12D vs. IC50 against KrasG12S is 1-fold or greater)”. Moreover, the half-inhibitory concentration (IC50) in the assay with GP2D cells (GP2D cells (K-Ras G12D)) is no more than 1 µM. For `Nc1nc2c(-c3c(Cl)cc4c(N5CC6CCC(C5)N6C(=O)n5cc(F)cn5)nc(OC[C@@]56CCCN5C[C@H](F)C6)nc4c3F)ccc(F)c2s1` [Compound A101, (3-(7-(2-amino-7-fluorobenzo[d]thiazol-4-yl)-6-chloro-8-fluoro-2-(((2R,7aS)-2-fluorotetrahydro-1H-pyrrolizin-7a(5H)-yl)methoxy)quinazolin-4-yl)-3,8-diazabicyclo[3.2.1]octan-8-yl)(4-fluoro-1H-pyrazol-1-yl)methanone], on K-Ras G12S, the “Ratio” value is reported as “A (A: indicates that the ratio of IC50 against KrasG12D vs. IC50 against KrasG12S is 1-fold or greater)”. For the same compound, the half-inhibitory concentration (IC50) in the assay on GP2D cells (GP2d) is 1 to 10 µM.

Take `N#Cc1cnn(C(=O)N2CC3CCC(C2)N3c2nc(OC[C@@]34CCCN3C[C@H](F)C4)nc3c(F)c(-c4ccc(F)c5sc(N)nc45)c(Cl)cc23)c1` [Compound A112, 1-(8-(7-(2-amino-7-fluorobenzo[d]thiazol-4-yl)-6-chloro-8-fluoro-2-(((2R,7aS)-2-fluorotetrahydro-1H-pyrrolizin-7a(5H)-yl)methoxy)quinazolin-4-yl)-3,8-diazabicyclo[3.2. 1]octane-3-carbonyl)-1H-pyrazole-4-carbonitrile]: the “Ratio” value at K-Ras G12S was “A (A: indicates that the ratio of IC50 against KrasG12D vs. IC50 against KrasG12S is 1-fold or greater)”. Moreover, the IC50 in the assay with GP2D cells (GP2d) is no more than 1 µM.

Turning to `Nc1nc2c(-c3c(Cl)cc4c(NC5CCN(C(=O)n6ccnc6)CC5)nc(OC[C@@]56CCCN5C[C@H](F)C6)nc4c3F)ccc(F)c2s1` [Compound A117, (4-((7-(2-amino-7-fluorobenzo[d]thiazol-4-yl)-6-chloro-8-fluoro-2-(((2R,7aS)-2-fluorotetrahydro-1H-pyrrolizin-7a(5H)-yl)methoxy)quinazolin-4-yl)amino)piperidin-1-yl)(1H-imidazol-1-yl)methanone], the “Ratio” value on K-Ras G12S was “A (A: indicates that the ratio of IC50 against KrasG12D vs. IC50 against KrasG12S is 1-fold or greater)”. Also, the IC50 in the assay with GP2D cells (GP2D cells (K-Ras G12D)) fell in the range of 1 to 10 µM. As to `N#Cc1cccn1C(=O)N1C2CCC1CN(c1nc(OC[C@@]34CCCN3C[C@H](F)C4)nc3c(F)c(-c4ccc(F)c5sc(N)nc45)c(Cl)cc13)C2` [Compound A121, 1-(3-(7-(2-amino-7-fluorobenzo[d]thiazol-4-yl)-6-chloro-8-fluoro-2-(((2R,7aS)-2-fluorotetrahydro-1H-pyrrolizin-7a(5H)-yl)methoxy)quinazolin-4-yl)-3,8-diazabicyclo[3.2. 1]octane-8-carbonyl)-1H-pyrrole-2-carbonitrile], on K-Ras G12S, the “Ratio” value was “A (A: indicates that the ratio of IC50 against KrasG12D vs. IC50 against KrasG12S is 1-fold or greater)”. Further, the IC50 in the assay on GP2D cells (GP2d) is no more than 1 µM.

Turning to `Nc1nc2c(-c3c(Cl)cc4c(N5CC6CCC(C5)N6C(=O)Nc5cncnc5)nc(OC[C@@]56CCCN5C[C@H](F)C6)nc4c3F)ccc(F)c2s1` [Compound A124, 3-(7-(2-amino-7-fluorobenzo[d]thiazol-4-yl)-6-chloro-8-fluoro-2-(((2R,7aS)-2-fluorotetrahydro-1H-pyrrolizin-7a(5H)-yl)methoxy)quinazolin-4-yl)-N-(pyrimidin-5-yl)-3,8-diazabicyclo[3.2. 1]octane-8-carboxamide], the “Ratio” value at K-Ras G12S is “A (A: indicates that the ratio of IC50 against KrasG12D vs. IC50 against KrasG12S is 1-fold or greater)”. The IC50 with GP2D cells (GP2d) is no more than 1 µM. Turning to `C#Cc1c(F)ccc2cc(O)cc(-c3ncc4c(N5CC6CCC(C5)N6C(=O)Nc5ncccn5)nc(OC[C@@]56CCCN5C[C@H](F)C6)nc4c3F)c12` [Compound A131, 3-(7-(8-ethynyl-7-fluoro-3-hydroxynaphthalen-1-yl)-8-fluoro-2-(((2R,7aS)-2-fluorotetrahydro-1H-pyrrolizin-7a(5H)-yl)methoxy)pyrido[4,3-d]pyrimidin-4-yl)-N-(pyrimidin-2-yl)-3,8-diazabicyclo[3.2. 1]octane-8-carboxamide], the half-maximal inhibitory concentration (IC50) in the assay on GP2D cells (GP2D cells (K-Ras G12D)) was no more than 1 µM. With `N#Cc1cnn(C(=O)N2C3CCC2CN(c2nc(OC[C@@]45CCCN4C[C@H](F)C5)nc4c(F)c(-c5ccc(F)c6sc(N)c(C#N)c56)ccc24)C3)c1` [Compound A176, 1-(3-(7-(2-amino-3-cyano-7-fluorobenzo[b]thiophen-4-yl)-8-fluoro-2-(((2R,7aS)-2-fluorotetrahydro-1H-pyrrolizin-7a(5H)-yl)methoxy)quinazolin-4-yl)-3,8-diazabicyclo[3.2. 1]octane-8-carbonyl)-1H-pyrazole-4-carbonitrile], the half-inhibitory concentration (IC50) in the assay with GP2D cells (GP2d) fell in the range of 1 to 10 µM. Regarding `N#Cc1c(N)sc2c(F)ccc(-c3c(Cl)cc4c(N5CC6CCC(C5)N6C(=O)n5ccnc5C#N)nc(OC[C@@]56CCCN5C[C@H](F)C6)nc4c3F)c12` [Compound A220, 1-(3-(7-(2-amino-3-cyano-7-fluorobenzo[b]thiophen-4-yl)-6-chloro-8-fluoro-2-(((2R,7aS)-2-fluorotetrahydro-1H-pyrrolizin-7a(5H)-yl)methoxy)quinazolin-4-yl)-3,8-diazabicyclo[3.2. 1]octane-8-carbonyl)-1H-imidazole-2-carbonitrile], the 50% inhibitory concentration (IC50) in the assay with GP2D cells (GP2D cells (K-Ras G12D)) was no more than 1 µM. On to `C#Cc1c(F)ccc2cccc(-c3ccc4c(N5CC6CCC(C5)N6C(=O)n5cncn5)nc(OC[C@@]56CCCN5C[C@H](F)C6)nc4c3F)c12` [Compound A229, (3-(7-(8-ethynyl-7-fluoronaphthalen-1-yl)-8-fluoro-2-(((2R,7aS)-2-fluorotetrahydro-1H-pyrrolizin-7a(5H)-yl)methoxy)quinazolin-4-yl)-3,8-diazabicyclo[3.2.1]octan-8-yl)(1H-1,2,4-triazol-1-yl)methanone], for which the IC50 with GP2D cells (GP2d) is 1 to 10 µM. Consider `C#Cc1c(F)ccc2cc(O)cc(-c3ncc4c(N5CC6CCC(C5)N6C(=O)n5cncn5)nc(OC[C@@]56CCCN5C[C@H](F)C6)nc4c3F)c12` [Compound A234, (3-(7-(8-ethynyl-7-fluoro-3-hydroxynaphthalen-1-yl)-8-fluoro-2-(((2R,7aS)-2-fluorotetrahydro-1H-pyrrolizin-7a(5H)-yl)methoxy)pyrido[4,3-d]pyrimidin-4-yl)-3,8-diazabicyclo[3.2.1]octan-8-yl)(1H-1,2,4-triazol-1-yl)methanone], for which, in the assay on GP2D cells (GP2D cells (K-Ras G12D)), the IC50 is no more than 1 µM. The same measure, in the same setting: under `N#Cc1c(N)sc2c(F)ccc(-c3c(Cl)cc4c(N5CC6CCC(C5)N6C(=O)n5ncnc5C#N)nc(OC[C@@]56CCCN5C[C@H](F)C6)nc4c3F)c12` [Compound A246] stands no more than 1 µM.

Consider `N#Cc1c(N)sc2c(F)ccc(-c3c(Cl)cc4c(O[C@@H]5C[C@H]6CC[C@@H](C5)N6C(=O)n5cncn5)nc(OC[C@@]56CCCN5C[C@H](F)C6)nc4c3F)c12` [Compound A247, 4-(4-(((1R,3s,5S)-8-(1H-1,2,4-triazole-1-carbonyl)-8-azabicyclo[3.2.1]octan-3-yl)oxy)-6-chloro-8-fluoro-2-(((2R,7aS)-2-fluorotetrahydro-1H-pyrrolizin-7 a(5H)-yl)methoxy)quinazolin-7-yl)-2-amino-7-fluorobenzo[b]thiophene-3-carbonitrile], for which the 50% inhibitory concentration (IC50) in the assay with GP2D cells (GP2d) lay in the range of 1 to 10 µM. `C#Cc1c(F)ccc2cc(O)cc(-c3ccc4c(N5CC6CCC(C5)N6C(=O)n5cncn5)nc(OC[C@@]56CCCN5C[C@H](F)C6)nc4c3F)c12` [Compound A281, (3-(7-(8-ethynyl-7-fluoro-3-hydroxynaphthalen-1-yl)-8-fluoro-2-(((2R,7aS)-2-fluorotetrahydro-1H-pyrrolizin-7a(5H)-yl)methoxy)quinazolin-4-yl)-3,8-diazabicyclo[3.2.1]octan-8-yl)(1H-1,2,4-triazol-1-yl)methanone]: in the assay on GP2D cells (GP2D cells (K-Ras G12D)), the 50% inhibitory concentration (IC50) was no more than 1 µM.
